Experimental data reported in US8563578B2, “Antitumor properties of NO modified protease inhibitors” (Onconox APS, priority 2008, dated 2013).

Tests used:
[1] = tested on: transformed human (HeLa, BT20, HCC 1419, PC-3) and rodent (C6, B16) cell lines; experiment: Cell viability by crystal violet assay, tumor cell line panel; assay type: cell-based, rat, mouse; conditions: 24 h
From the text: Rat glioma C6 and human glioblastoma U251 cell lines were a kind gift from Dr. Pedro Tranque (Universidad de Castilla-La Mancha, Albacete, Spain), murine melanoma B 16, and human adenocarcinoma HeLa, were a kind gift from Dr. Sinisa Radulovic (Institute for Oncology and Radiology of Serbia, Belgrade, Serbia) while mouse fibrosarcoma L929 was obtained from the European Collection of Animal Cell Cultures (Salisbury, UK). Human breast HCC1419 and prostate PC-3 cells were purchased from LGC Promochem srl (Venezia, Italy). Primary mouse fibroblasts and rat astrocytes were prepared as described (Mijatovic et al. 2004). Cells were grown in HEPES-buffered RPMI 1640 medium supplemented with 5% FCS, 2 mM glutamine, 0.01% sodium pyruvate, 5×10^−5 M 2-mercaptoethanol, and antibiotics (culture medium) at 37° C. in a humidified atmosphere with 5% CO2. After the conventional trypsinization procedure cells were seeded at 1×10^4/well in 96-well, 2×10^5/well in 6-well plate or 3×10^4/well in 4-well chamber slide, cultivated overnight, and then exposed to drug. […]
(§1) Reduction of 3-4,5-dimethylthiazol-2-yl)-2,5-diphenyltetrazolium bromide (MTT) to formazan depends on mitochondrial activity of cultured cells, absorption of crystal violet dye correlates with the number of adherent, live cells, while the release of cytosolic lactate dehydrogenase (LDH) indicates the disruption of membrane integrity caracteristic for necrotic cells. […] Mitohondrial-dependent production of formazan and intensity of absorbed crystal violet by adherent cells were assessed by an automated microplate reader at 570 nm, while the pyruvate-mediated conversion of 2,4-dinitrophenylhydrazine into visible hydrazone precipitate in LDH assay was measured at 492 nm. The % of cytotoxicity as indicated by LDH release was calculated as: (E−C)/(T−C)×100, where E is the experimental absorbance of cell cultures, C is the control absorbance of cell-free culture medium, and T is the absorbance corresponding to the maximal (100%) LDH release of Triton-lysed cells.
(§2) FIG. 2. […] Cell viability was then evaluated by CV test. […]

[2] = tested on: C6 cells; experiment: LDH release assay, C6; assay type: cell-based; conditions: 24 h, different doses
Procedure: Reduction of 3-4,5-dimethylthiazol-2-yl)-2,5-diphenyltetrazolium bromide (MTT) to formazan depends on mitochondrial activity of cultured cells, absorption of crystal violet dye correlates with the number of adherent, live cells, while the release of cytosolic lactate dehydrogenase (LDH) indicates the disruption of membrane integrity caracteristic for necrotic cells. The cells were seeded in flat-bottom 96-well plates in a final volume of 200 μl of culture medium containing different agents, and the assays were performed after 24 h incubation exactly as previously described (Mijatovic et al. 2004, Decker et al., 1998). Mitohondrial-dependent production of formazan and intensity of absorbed crystal violet by adherent cells were assessed by an automated microplate reader at 570 nm, while the pyruvate-mediated conversion of 2,4-dinitrophenylhydrazine into visible hydrazone precipitate in LDH assay was measured at 492 nm. The % of cytotoxicity as indicated by LDH release was calculated as: (E−C)/(T−C)×100, where E is the experimental absorbance of cell cultures, C is the control absorbance of cell-free culture medium, and T is the absorbance corresponding to the maximal (100%) LDH release of Triton-lysed cells.
FIG. 4. […] Results are calculated as indicated in materials and methods and presented as mean±SD from representative of three independent experiment (*p <0.05). […]

[3] = tested on: C6 cells; experiment: Autophagy detection by acridin orange staining, C6; assay type: cell-based, rat; conditions: 18.8 μM, 24 h
Procedure: (§3) Vital dye acridin orange (AO) was used for detection of autophagy. The intensity of red fluorescence correlates with acidity and volume of present autophagic organelles (Kanzawa et al. 2004). Assay was performed as follows: the cells were cultured in 6-well plate (2×10^5/well) 24 h in the presence of the drug, detached with trypsin and stained with 1 μg/ml AO in RPMI without phenol red for 15 min at RT. After the end of incubation period cells were washed and resuspended in PBS. Green and red fluorescence emission was measured with a FACSCalibur and analyzed using CellQuest software.
(§4) FIG. 4. […] Results are calculated as indicated in materials and methods and presented as mean±SD from representative of three independent experiment (*p <0.05). […] After 24 h of cultivation without or with drugs, cells were stained with AO orange (B) or PI (C) and analyzed by flow cytometry. The data are presented as mean±SD from three independent experiments. *p<0.05, refers to untreated cultures. […] Cells were incubated with 18.8 μM of Sag or Saq-NO2 for 24 h. After that, the drugs were either removed or not from the cells and incubated for additional 24 h. Cell viability was determined by CV test after 24 and 48 h of incubation (right panels). The data are presented as mean±SD from three independent experiments. *p<0.05, refers to untreated cultures.

[4] = tested on: B16 cells; experiment: Autophagy detection by acridin orange staining, B16; assay type: cell-based, mouse; conditions: 18.8 μM, 24 h
Procedure: as §3, §4

[5] = tested on: C6 cells; experiment: Cell cycle / apoptosis by propidium iodide flow cytometry, C6; assay type: cell-based, rat; conditions: 18.8 μM, 24 h
Procedure: Apoptotic cell death was assessed by flow cytometry analysis of DNA fragmentation in cells stained with DNA-binding dye propidium iodide (PI). Following a 24 h incubation in 6-well plate, cells (2×10^5/well) were detached with trypsin, washed and fixed in 70% ethanol at 4° C. for 30 min. After washing in PBS, cells were resuspended in PBS containing 1 mg/ml RNase and propidium iodide (40 μg/ml) and kept at 37° C. in the dark for 30 min. Red fluorescence was analyzed with FACSCalibur flow cytometer (BD, Heidelberg, Germany) and distribution of cells among cell cycle phases was determined with Cell Quest Pro software (BD). Hypodiploid cells in sub-G0/G1 compartment were considered apoptotic.
as §4

[6] = tested on: B16 melanoma; experiment: B16 melanoma growth in syngeneic C57BL/6 mice; assay type: in vivo, mouse; conditions: 10 mg/kg i.p.; for animals that developed tumors at autopsy: day 30 post tumor challenge
Procedure: In order to induce primary tumor 2×10^5 B16 melanoma cells were injected subcutaneously (s.c) in the dorsal right lumbosacral region of syngeneic C57BL/6 mice. Tumor growth was observed daily, and the drug treatment started from day 10 after implantation. […] Mice were sacrificed on day 30, tumor growth was determined by three-dimensional measurements of individual tumors from each mouse. Tumor volume was calculated as: [0.52×a×b^2], where a is the longest and b is the shortest diameter as described previously (Maksimovic-Ivanic et al. 2008).
FIG. 7. […] Tumor volumes were determined 30 days after tumor implantation, as indicated in Materials and methods.

[7] = tested on: B16 mouse melanoma; experiment: Cell viability, B16 cells; assay type: cell-based; conditions: read-out: reduction of cell viability
From the text: Rat glioma C6 and human glioblastoma U251 cell lines were a kind gift from Dr. Pedro Tranque (Universidad de Castilla-La Mancha, Albacete, Spain), murine melanoma B 16, and human adenocarcinoma HeLa, were a kind gift from Dr. Sinisa Radulovic (Institute for Oncology and Radiology of Serbia, Belgrade, Serbia) while mouse fibrosarcoma L929 was obtained from the European Collection of Animal Cell Cultures (Salisbury, UK). Human breast HCC1419 and prostate PC-3 cells were purchased from LGC Promochem srl (Venezia, Italy). Primary mouse fibroblasts and rat astrocytes were prepared as described (Mijatovic et al. 2004). […]
as §1, with “The % of cytotoxicity as indicated by LDH release was calculated as: (E−C)/(T−C)×100, where E is the experimental absorbance of cell cultures, C is the control absorbance of cell-free culture medium, and T is the absorbance corresponding to the maximal (100%) LDH release of Triton-lysed cells.” left out
as §2

[8] = 15 consecutive days from day 10

Compound	anti-tumor potential (viability of tumor cell lines) [1]	LDH release (cytotoxicity, necrosis) [2]	amount of acidic vesicles in the cytoplasm (autophagy) [3]	amount of acidic vesicles in the cytoplasm (autophagy) [4]	cell cycle distribution [5]	animals without tumors with strong inflammation of peritoneum ([6]; 15 consecutive days)	loss of body weight from initial body weight ([6]; 15 consecutive days)	tumor volume ([6]; 15 consecutive days from day 10, day 30)	animals that developed tumors at autopsy [6, 8]	IC50 value relative to the parent drug ([1]; tumor cell lines)	cytotoxicity at 18.8 µM [7]	percentage of cells in subG compartment (apoptosis) [5]	raise of body weight, of initial body weight ([6]; 15 consecutive days)	visible signs of toxicity ([6]; 15 consecutive days)
CC(C)(C)NC(=O)[C@@H]1C[C@@H]2CCCC[C@@H]2CN1C[C@@H](O)[C@H](Cc1ccccc1)NC(=O)[C@H](CC(N)=O)NC(=O)c1ccc2ccccc2n1 [Saq, Saquinavir, reference compound]	strong anti-tumor potential	induced LDH release in both cell lines in a dose-dependent way	absence of autophagia	absence of autophagia	did not show considerably different distribution from control	4 animals	10%	significantly reduced volume	3/9	–	–	–	–	–
CC(C)(C)NC(=O)[C@@H]1C[C@@H]2CCCC[C@@H]2CN1C[C@@H](O[N+](=O)[O-])[C@H](Cc1ccccc1)NC(=O)[C@H](CC(N)=O)NC(=O)c1ccc2ccccc2n1 [Saq-NO2, nitric ester of Saquinavir]	strong anti-tumor potential	significant percentage of C6 cytotoxicity was detected only upon the highest dose	absence of autophagia	absence of autophagia	particularly marked arrest in G0/G1	–	–	–	one	two to four fold lower	~70%	slightly increased	13%	no any visible signs of toxicity
